Measurements from paper PMC6065180, “An allosteric propofol-binding site in kinesin disrupts kinesin-mediated processive movement on microtubules” (The Journal of Biological Chemistry, 2018).

Legend:
[1] = target: T1, KIF3BB (Mus musculus, UniProt Q61771); test: Qdot single-molecule TIRF motility; format: biochemical; conditions: 10 μM AziPm; 1 mM MgATP, X-rhodamine microtubules, paclitaxel, 5% DMSO, pH 6.9, 25 °C
T1 construct: gene Kif3b; KIF3B Met1-Leu369, C-terminal EB1 dimerization motif, TEV site and His8 tag kept; E. coli; engineered homodimer, Mr 48,011 per chain
T1 sequence (Q61771 1-369): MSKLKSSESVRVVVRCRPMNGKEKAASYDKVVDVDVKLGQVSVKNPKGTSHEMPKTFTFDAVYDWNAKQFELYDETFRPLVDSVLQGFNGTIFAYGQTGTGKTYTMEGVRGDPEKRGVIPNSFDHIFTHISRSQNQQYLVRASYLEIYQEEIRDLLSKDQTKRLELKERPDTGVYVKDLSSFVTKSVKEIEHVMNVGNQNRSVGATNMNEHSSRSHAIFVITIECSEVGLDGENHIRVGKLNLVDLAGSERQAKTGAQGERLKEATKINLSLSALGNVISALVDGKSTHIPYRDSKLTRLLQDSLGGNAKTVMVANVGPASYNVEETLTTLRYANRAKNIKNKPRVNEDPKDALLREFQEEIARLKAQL

[2] = target: T2, KIF3CC (Mus musculus, UniProt O35066); test: Qdot single-molecule TIRF motility; format: biochemical; conditions: 10 μM AziPm; 1 mM MgATP, X-rhodamine microtubules, paclitaxel, 5% DMSO, pH 6.9, 25 °C
T2 construct: gene Kif3c; KIF3C Met1-Leu396, C-terminal EB1 dimerization motif, TEV site and His8 tag kept; E. coli; engineered homodimer
T2 sequence (O35066 1-396): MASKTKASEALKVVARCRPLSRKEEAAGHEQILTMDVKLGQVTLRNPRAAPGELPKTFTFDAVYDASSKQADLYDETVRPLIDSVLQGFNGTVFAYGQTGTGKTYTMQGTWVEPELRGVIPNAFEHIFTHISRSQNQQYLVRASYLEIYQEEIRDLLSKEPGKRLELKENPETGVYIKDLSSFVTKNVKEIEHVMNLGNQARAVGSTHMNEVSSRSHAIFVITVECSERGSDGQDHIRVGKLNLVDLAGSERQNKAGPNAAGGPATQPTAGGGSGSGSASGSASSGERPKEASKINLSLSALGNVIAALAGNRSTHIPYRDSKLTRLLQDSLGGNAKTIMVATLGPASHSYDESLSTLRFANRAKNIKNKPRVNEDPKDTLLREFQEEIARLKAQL

CC(C)c1ccc(C2(C(F)(F)F)N=N2)cc1O [AziPm, meta-azipropofol]
% decrease in run length at 10 μM [1]: ~ 50%
% decrease in run length at 10 μM [2]: ~ 35%
